Read-outs that look alike come from different tables or passages of the source. Marks after values point to notes of the source that are not given here.
Columns and labels:
DSS colitis model = test: In vivo efficacy in 3% DSS colitis model in mice; parameters: species or system male C57BL/6 mice; conditions: for Colon length / Colon weight / Pathological score: D0-D11, DSS colitis mice; for Colon length / Colon weight: D11; for Pathological score: colon HE staining
Experimental: In this experiment, male C57BL/6 mice (from Jiangsu Jicui Pharmaceutical Biotechnology Co., Ltd.) were used to establish a colitis model by freely drinking 3% DSS water. After the adaptive feeding of mice, they were randomly divided into 4 groups according to their body weight: normal control group, DSS enteritis model group, compound 18-10 mg/kg group, and ABX464-40 mg/kg group. The day of grouping was recorded as DO. On D0-D8, mice in G2-G4 groups were given 3% DSS drinking water, which was changed every 3 days. On D9-D11, mice in G2-G4 groups were given normal drinking water. The corresponding solvents and drugs were intragastrically administered for 11 consecutive days from D0 to D11. From D0 to D11, mice in the G1 group received normal diet and water, and were given blank-vehicle for 11 consecutive days. The mice were observed daily from D0 to D11, their weights were recorded, diarrhea scores and bloody stool scores were measured daily, and the DAI values were calculated. On D11, mice were euthanized, colon tissue was obtained, colon length was measured, colon weight was weighed, and photos were taken. The colon tissues were subjected to HE staining and pathological analysis. Statistical analysis: Independent sample T test was used. #: P<0.05 compared with the normal control group; ##: P<0.01 compared with the normal control group; ###: P<0.001 compared with the normal control group. *: P<0.05 compared with the model control group; **: P<0.01 compared with the model control group; ***: P<0.001 compared with the model control group.

TNF-α = test: Macrophage TNF-α secretion after LPS (ELISA); format: cell-based; conditions: Bone marrow macrophage, compared to 0 μM, mouse bone marrow macrophages, 200 ng/ml LPS, 6 hours, read-out: Inhibition rate of TNFα at 10 μM concentration
Experimental: Pharmacological Activity Test: Regulatory Effect of Quinoline Derivatives on Macrophage IL-6 and TNF-α Secretion
Mouse bone marrow cells were isolated from the femur and tibia bone marrow of […] mice of 6-8 week old raised under SPF conditions and inoculated in 6-well plates at a density of 1.5*10^6 cells/well/2 mL. 50 ng/mL M-CSF was added to each well and the cells were cultured in a CO2 incubator for 3 days. On the third day, the culture medium was replaced with fresh medium containing 100 ng/mL M-CSF and the culture was continued for 3 days. On the 6th day, the supernatant was removed and the cells were washed once with DPBS. After adding 1 mL of DPBS, the macrophages were harvested using a cell scraper, centrifuged at 400 g for 10 min, and the supernatant was discarded. The cells were resuspended in fresh culture medium containing 50 ng/mL M-CSF, inoculated in a 96-well plate at a density of 2*10^4 cells/well/200 μL, and cultured in a CO2 incubator overnight. 0, 3, 5, […] of the test compound were added to each well (wherein well 0 contains 0.1% DMSO) respectively and incubate in a CO2 incubator for 1 hour. Then 200 ng/ml LPS was added and the cell supernatant was collected after 6 hours of co-culture. ELISA kits were used to detect the secretion levels of IL-6 and TNF-α.

CYP2D6 = target: T1, CYP2D6 (Homo sapiens, UniProt P10635); test: CYP enzyme inhibition, human liver microsomes, CYP2D6; format: in vitro ADME; conditions: probe substrate Dextromethorphan, read-out: IC50 CYP 2D6
T1 construct: Commercially available mixed human liver microsomes were used; from tissue; host or cells: pooled human liver microsomes
Experimental: (§1) Commercially available mixed human liver microsomes were used, with the liver microsome concentrations of diclofenac, dextromethorphan, and midazolam being 0.1 mg/mL; and the liver microsome concentrations of phenacetin, bupropion, amodiaquine, mephenytoin, and testosterone being 0.2 mg/mL. Probe substrate, specific inhibitor and test compound (ABX464, compound 18) were diluted to the corresponding concentration of working solution for use. A mixed solution containing liver microsomes, MgCl2, substrate, […] inhibitor, and the test compound was prepared. After the incubation, 600 μL of ice-cold ACN working solution containing IS was added to terminate the reaction, and the mixture was centrifuged and used for LC-MS/MS detection. [table] At different concentrations of the test compound or positive inhibitor, the percentage of remaining activity is determined by the ratio of the amount of characteristic metabolites of the probe substrate generated to the corresponding amount generated in the absence of the test compound or positive inhibitor. […]

CYP3A4 = target: T2, CYP3A4 (Homo sapiens, UniProt P08684); test: CYP enzyme inhibition, human liver microsomes, CYP3A4; format: in vitro ADME
T2 construct: Commercially available mixed human liver microsomes were used; from tissue; host or cells: pooled human liver microsomes
Experimental: Commercially available mixed human liver microsomes were used, with the liver microsome concentrations of diclofenac, dextromethorphan, and midazolam being 0.1 mg/mL; and the liver microsome concentrations of phenacetin, bupropion, amodiaquine, mephenytoin, and testosterone being 0.2 mg/mL. Probe substrate, specific inhibitor and test compound (ABX464, compound 18) were diluted to the corresponding concentration of working solution for use. A mixed solution containing liver microsomes, MgCl2, substrate, […] inhibitor, and the test compound was prepared. After the incubation, 600 μL of ice-cold ACN working solution containing IS was added to terminate the reaction, and the mixture was centrifuged and used for LC-MS/MS detection. [table] At different concentrations of the test compound or positive inhibitor, the percentage of remaining activity is determined by the ratio of the amount of characteristic metabolites of the probe substrate generated to the corresponding amount generated in the absence of the test compound or positive inhibitor. If a significant decrease in the amount of metabolite production is found at the highest concentration setting point, the half inhibitory concentration (IC50) will be calculated using the log(inhibitor) vs. response—Variable slope formula of GraphPad Prism software: Y=Bottom+(Top−Bottom)/(1+10^((Log IC50−X)*Hillslope)) • X: Log (test compound or positive inhibitor concentration); • Y: Remaining activity percentage; • Top and Bottom: refer to the theoretical maximum and minimum remaining activity percentages respectively; and • Hillslope: slope coefficient or slope. If there is no significant decrease in metabolite production at the highest concentration setting point (percentage of enzyme remaining activity […]), the half inhibitory concentration (IC50) cannot be accurately calculated, and the reported IC50 is greater than the highest concentration tested.

CYP2C8 = target: T3, CYP2C8 (Homo sapiens, UniProt P10632); test: CYP enzyme inhibition, human liver microsomes, CYP2C8; format: in vitro ADME; conditions: probe substrate Amodiaquine, read-out: IC50 CYP 2C8
T3 construct: Commercially available mixed human liver microsomes were used; from tissue; host or cells: pooled human liver microsomes
T3 sequence (P10632 1-490): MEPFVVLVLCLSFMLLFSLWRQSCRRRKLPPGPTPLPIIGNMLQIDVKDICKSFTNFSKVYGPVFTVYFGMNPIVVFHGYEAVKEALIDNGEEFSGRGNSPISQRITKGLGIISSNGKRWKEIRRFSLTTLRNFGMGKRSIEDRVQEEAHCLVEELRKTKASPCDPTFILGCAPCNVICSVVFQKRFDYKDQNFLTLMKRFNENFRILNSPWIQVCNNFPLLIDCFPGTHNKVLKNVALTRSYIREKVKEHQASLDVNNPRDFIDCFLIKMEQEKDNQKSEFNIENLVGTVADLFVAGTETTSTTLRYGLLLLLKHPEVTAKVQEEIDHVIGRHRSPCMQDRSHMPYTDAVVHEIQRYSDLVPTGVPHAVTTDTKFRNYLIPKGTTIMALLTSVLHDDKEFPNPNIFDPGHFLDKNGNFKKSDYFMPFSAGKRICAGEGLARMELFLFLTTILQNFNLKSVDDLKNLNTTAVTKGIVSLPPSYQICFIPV
Experimental: as §1

CYP2C19 = target: T4, CYP2C19 (Homo sapiens, UniProt P33261); test: CYP enzyme inhibition, human liver microsomes, CYP2C19; format: in vitro ADME; conditions: probe substrate S-Mephenytoin, read-out: IC50 CYP 2C19
T4 construct: Commercially available mixed human liver microsomes were used; from tissue; host or cells: pooled human liver microsomes
Experimental: as §1

[1] = probe substrate Midazolam, read-out: IC50 CYP 3A4-Midazolam
[2] = probe substrate Testosterone, read-out: IC50 CYP 3A4-Testosterone
[3] = 10 mg/kg o.p. QD, listed as compound 18
[4] = 10 mg/kg o.p. QD, DSS colitis mice

T2 sequence (P08684 whole entry): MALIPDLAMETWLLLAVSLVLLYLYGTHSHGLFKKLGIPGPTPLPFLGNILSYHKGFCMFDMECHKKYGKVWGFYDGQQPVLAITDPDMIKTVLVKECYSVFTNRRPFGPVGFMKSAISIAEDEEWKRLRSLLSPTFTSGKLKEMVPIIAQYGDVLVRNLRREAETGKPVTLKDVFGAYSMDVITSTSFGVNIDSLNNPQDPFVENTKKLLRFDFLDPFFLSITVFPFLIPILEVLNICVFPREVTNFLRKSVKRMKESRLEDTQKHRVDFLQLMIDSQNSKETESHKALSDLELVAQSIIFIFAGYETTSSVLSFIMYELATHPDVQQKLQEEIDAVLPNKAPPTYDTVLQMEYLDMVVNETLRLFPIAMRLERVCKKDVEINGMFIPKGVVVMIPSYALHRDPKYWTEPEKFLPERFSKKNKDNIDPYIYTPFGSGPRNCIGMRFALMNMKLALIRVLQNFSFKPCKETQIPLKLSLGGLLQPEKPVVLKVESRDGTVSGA
T1 sequence (P10635 whole entry): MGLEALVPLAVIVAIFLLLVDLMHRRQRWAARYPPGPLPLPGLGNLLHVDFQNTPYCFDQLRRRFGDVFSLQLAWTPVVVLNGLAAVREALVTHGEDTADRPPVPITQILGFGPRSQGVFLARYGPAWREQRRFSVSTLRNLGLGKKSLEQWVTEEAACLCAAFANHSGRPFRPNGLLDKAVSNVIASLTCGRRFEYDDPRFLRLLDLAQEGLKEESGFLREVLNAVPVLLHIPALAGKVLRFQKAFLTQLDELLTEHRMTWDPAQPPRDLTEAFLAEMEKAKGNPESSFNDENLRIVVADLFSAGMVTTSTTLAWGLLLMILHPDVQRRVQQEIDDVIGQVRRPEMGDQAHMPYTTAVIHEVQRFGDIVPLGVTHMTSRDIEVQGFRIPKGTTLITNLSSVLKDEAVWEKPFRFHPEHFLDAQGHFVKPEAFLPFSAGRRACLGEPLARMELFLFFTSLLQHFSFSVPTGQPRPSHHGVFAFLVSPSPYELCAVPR
T4 sequence (P33261 whole entry): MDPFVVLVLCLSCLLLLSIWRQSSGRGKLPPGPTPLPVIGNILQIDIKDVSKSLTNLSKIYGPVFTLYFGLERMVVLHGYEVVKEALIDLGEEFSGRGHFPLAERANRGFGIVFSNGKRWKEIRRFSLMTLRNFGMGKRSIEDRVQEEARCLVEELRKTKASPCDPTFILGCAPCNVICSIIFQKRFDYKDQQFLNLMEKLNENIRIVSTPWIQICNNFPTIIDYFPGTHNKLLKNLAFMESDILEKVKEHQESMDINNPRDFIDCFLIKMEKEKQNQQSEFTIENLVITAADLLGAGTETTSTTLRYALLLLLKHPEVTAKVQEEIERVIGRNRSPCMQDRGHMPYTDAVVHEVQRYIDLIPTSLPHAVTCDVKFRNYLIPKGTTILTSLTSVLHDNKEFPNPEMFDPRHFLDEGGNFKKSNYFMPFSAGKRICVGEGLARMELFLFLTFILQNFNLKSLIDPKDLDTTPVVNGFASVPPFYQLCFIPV

Q: For `FC(F)(F)Oc1ccc(Nc2ccc3cccc(Cl)c3n2)cc1` [ABX464, reference compound], which “DAI score compared with DSS enteritis model control group” value (DSS colitis model; 40 mg/kg o.p. QD, DSS colitis mice) is on record?
A: Its value is “significantly reduced”.

Q: What about the inhibition at 10 µM (TNF-α) of the same molecule?
A: The inhibition at 10 µM was 80%.

Q: And the IC50 (CYP2D6)?
A: The IC50 was 17.2 µM.

Q: What about the IC50 (CYP3A4; [1]) of the same molecule?
A: The IC50 was 73 µM.

Q: What about the IC50 (CYP3A4; [2]) of the same molecule?
A: Its IC50 is over 100 µM.

Q: And the IC50 (CYP2C8)?
A: The IC50 was 35.9 µM.

Q: And the IC50 (CYP2C19)?
A: The IC50 was 4.92 µM.

Q: For `Fc1cc(Cl)c2nc(Nc3ccc(C4(C(F)(F)F)CC4)cc3)ccc2c1` [Compound 18, 8-chloro-6-fluoro-N-(4-(1-(trifluoromethyl)cyclopropyl)phenyl)quinolin-2-amine], which Colon length (DSS colitis model; 10 mg/kg o.p. QD) is on record?
A: The Colon length was 6.6*** cm.

Q: And the Colon weight (DSS colitis model; 10 mg/kg o.p. QD)?
A: Its Colon weight is 0.3710** g.

Q: And the Colon length (DSS colitis model; [3])?
A: The Colon length was “significantly increased”.

Q: And the Colon weight (DSS colitis model; [3])?
A: Its Colon weight is “significantly increased”.

Q: And the Pathological score (DSS colitis model; 10 mg/kg o.p. QD)?
A: The Pathological score was 4.00.

Q: And the Pathological score (DSS colitis model; [3])?
A: Its Pathological score is “significantly reduced”.

Q: What about the “Body weight of mice compared with DSS enteritis model control group” value (DSS colitis model; [4]) of the same molecule?
A: The value was “significantly increased”.

Q: And the “DAI score compared with DSS enteritis model control group” value (DSS colitis model; [4])?
A: The value was “significantly reduced”.

Q: And the inhibition at 10 µM (TNF-α)?
A: Its inhibition at 10 µM is 94%.

Q: And the IC50 (CYP2D6)?
A: The IC50 was 48 µM.

Q: And the IC50 (CYP3A4; [1])?
A: Its IC50 is over 100 µM.

Q: And the IC50 (CYP3A4; [2])?
A: Its IC50 is over 100 µM.

Q: And the IC50 (CYP2C8)?
A: Its IC50 is 40.4 µM.

Q: What about the IC50 (CYP2C19) of the same molecule?
A: Its IC50 is 5.69 µM.

Reference: patent US20260216180A1, “QUINOLINE DERIVATIVE COMPOUNDS OR PHARMACEUTICALLY ACCEPTABLE SALT THEREOF, PREPARATION METHOD THEREFOR AND USE THEREOF” (JIANGSU CAREPHAR PHARMACEUTICAL CO.,LTD., priority 2023, published 2026)
